Like-named read-outs stand apart in the source and are kept apart here.
Key:
[1] = target: T1, human serotonin 5-HT2c receptor (Homo sapiens, UniProt P28335); assay: Human 5-HT2C receptor radioligand binding assay (agonist site, [125I](±)DOI); settings: membranes of transfected CHO cells, 0.2 nM [125I](±)DOI, 15 minutes at 37° C.
T1 construct: expressed in transfected cells; host or cells: CHO cells (membrane homogenate)
T1 sequence (P28335 33-458): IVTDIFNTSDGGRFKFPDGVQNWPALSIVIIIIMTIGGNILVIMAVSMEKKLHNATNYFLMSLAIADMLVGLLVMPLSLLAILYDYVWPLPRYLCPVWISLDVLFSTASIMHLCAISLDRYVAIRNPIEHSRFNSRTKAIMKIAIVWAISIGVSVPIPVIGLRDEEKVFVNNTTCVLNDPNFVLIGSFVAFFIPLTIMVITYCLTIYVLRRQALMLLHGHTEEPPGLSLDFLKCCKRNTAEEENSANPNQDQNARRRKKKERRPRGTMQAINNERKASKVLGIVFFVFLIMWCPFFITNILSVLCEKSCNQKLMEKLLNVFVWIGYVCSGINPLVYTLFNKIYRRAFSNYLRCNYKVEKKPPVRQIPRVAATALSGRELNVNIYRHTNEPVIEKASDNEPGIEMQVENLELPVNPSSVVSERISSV
Method: To determine the effectiveness of compounds having a formula (I), these compounds can be evaluated in a radioligand binding assay for the agonist site of the human serotonin 5-HT2c receptor or in vitro models of cellular function.
(i) Human 5-HT2C Receptor Radioligand Binding Assay
Affinity of compounds for the agonist site of the 5-HT2c receptor in transfected CHO cells was determined in a radioligand binding assay essentially as described by Bryant, H. U., et al., Life Sciences (1996) 59(15), 1259-1268.

[2] = target: T2, 5HT2B receptors (Homo sapiens, UniProt P41595); assay: Human 5-HT2B functional assay in CHO-K1 cells (calcium flux, FLIPR); assay type: cell-based; settings: for Emax: CHO-K1, read-out: Emax (%), 5-HT2B Agonist Activity
T2 construct: expressed in transfected cells; host or cells: CHO-K1 cells
Method in brief: (§1)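 Frozen CHO-K1 cells over-expressing receptor, serum-starved overnight, loaded with Ca4 dye plus 2.5 mM probenecid for 60 min at room temperature. FLIPR fluorescence (ex 480/em 530 nm, 25° C) recorded 3 min after compound addition; 6-point 1:10 series from 10 μM, 0.2% DMSO. Response normalized to serotonin, 4-parameter fit gives EC50; Emax as % of serotonin.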

[3] = target: T3, 5HT2C receptors (Homo sapiens, UniProt P28335); assay: Human 5-HT2C functional assay in 1321N1 cells (intracellular calcium, FLIPR); assay type: cell-based; parameters: expressed in transfected cells; host or cells: 1321N1 cells; settings: for EC50: 1321N1 cells stably transfected, maximum calcium response, read-out: EC50 (μM), 5-HT2c Agonist Activity; for Emax: 1321N1 cells, percentage relative to the effect of serotonin, read-out: Emax (%), 5-HT2c Agonist Activity
T3 sequence (P28335 33-458): T1 sequence (P28335 33-458)
Method: (ii) Human 5-HT2C Functional Assay in 1321N1 Cells
Functional activity was determined by testing the effect of the compounds on intracellular calcium levels in 1321N1 cells stably transfected with the human 5-HT2C receptor. Cells were seeded into 96-well plates at 50,000 cells/well and grown overnight in tissue culture medium (DMEM with Glutamax I (Invitrogen), containing 10% dFCS, 50 μg/mL Gentamicin, 400 μg/mL Geneticin) at 37° C. and 7% CO2. Growth medium was replaced by medium without dFCS for overnight incubation. Cells were loaded with a fluorescent calcium-sensitive dye in the presence of 1% probenicid according to the manufacturer's protocol (Fluo4 AM, Molecular Devices). Serial compound dilutions (final concentrations 10^−10 to 10^−5 M) were added to the cells either alone or in the presence of serotonin (10^−9 M) and the maximum calcium response was determined using a FLIPR instrument (Molecular Devices). Concentration-response curves were fitted using a four-parameter logistic equation (GraphPad Prism). The concentration at which the compound exerts half its maximal effect is named the ‘effective concentration 50’ or ‘EC50’ and is listed in Table 2.
Emax is the maximum functional response or efficacy expressed as a percentage relative to the effect of serotonin.

[4] = target: T3, 5HT2C receptors; assay: Human 5-HT2C functional assay in CHO-K1 cells (calcium flux, FLIPR); assay type: cell-based; parameters: expressed in transfected cells; host or cells: CHO-K1 cells; settings: for Emax: percentage relative to the effect of serotonin
Method in brief: as §1

[5] = CHO-K1, read-out: Emax (%), 5-HT2c Agonist Activity, CHO-K1 cells

T2 sequence (P41595 whole entry): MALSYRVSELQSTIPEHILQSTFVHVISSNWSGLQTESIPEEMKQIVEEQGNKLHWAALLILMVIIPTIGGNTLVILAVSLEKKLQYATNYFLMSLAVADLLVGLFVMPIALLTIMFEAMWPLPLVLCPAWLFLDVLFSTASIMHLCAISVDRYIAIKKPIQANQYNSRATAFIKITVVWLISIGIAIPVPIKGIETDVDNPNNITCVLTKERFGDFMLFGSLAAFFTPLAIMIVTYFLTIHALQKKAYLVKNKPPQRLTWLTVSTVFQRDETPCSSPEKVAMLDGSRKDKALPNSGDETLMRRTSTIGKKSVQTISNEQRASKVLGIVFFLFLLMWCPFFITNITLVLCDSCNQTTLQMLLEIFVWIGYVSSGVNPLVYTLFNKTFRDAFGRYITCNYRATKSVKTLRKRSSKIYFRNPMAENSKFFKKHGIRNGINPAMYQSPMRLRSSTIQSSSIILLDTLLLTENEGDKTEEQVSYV

With `Brc1ccc2c(c1)NCCC1CNCCN21` (centres unmarked) [Example 19, 9-bromo-1,2,3,4,4a,5,6,7-octahydropyrazino[1,2-a][1,5]benzodiazepine] the Ki [1] was 0.14 µM, the EC50 [2] was over 10 µM and the EC50 [3] was 0.0283 µM. The Emax [3] was 85.5%, the EC50 [4] was 0.02 µM and the Emax [4, 5] was over 120%.

In the case of `O=C1CC2CNCCN2c2cc(CCc3ccccc3)ccc2N1` (centres unmarked) [Example 29, 10-(2-phenylethyl)-1,2,3,4,4a,5-hexahydropyrazino[1,2-a][1,5]benzodiazepin-6(7H)-one], the Ki [1] is reported as 0.011 µM, the EC50 [3] is reported as 0.0043 µM and the Emax [3] is reported as 104%.

With `O=C1CC2CNCCN2c2c(Br)cccc2N1` (centres unmarked) [Example 30, 11-bromo-1,2,3,4,4a,5-hexahydropyrazino[1,2-a][1,5]benzodiazepin-6(7H)-one] the Ki [1] was 0.016 µM, the EC50 [3] was 0.0017 µM and the Emax [3] was 113%.

In the case of `O=C1CC2CNCCN2c2cc(C(F)(F)F)ccc2N1` (centres unmarked) [Example 31, 10-(trifluoromethyl)-1,2,3,4,4a,5-hexahydropyrazino[1,2-a][1,5]benzodiazepin-6(7H)-one], the Ki [1] is reported as 0.087 µM, the EC50 [3] is reported as 0.0204 µM and the Emax [3] is reported as 118%.

Work on `O=C1CC2CNCCN2c2cccc(F)c2N1` (centres unmarked) [Example 32, 8-fluoro-1,2,3,4,4a,5-hexahydropyrazino[1,2-a][1,5]benzodiazepin-6(7H)-one] yielded a Ki [1] of 0.042 µM, an EC50 [2] of over 10 µM and an EC50 [3] of 0.0258 µM. It also gave an Emax [3] of 102%, an EC50 [4] of 0.008 µM and an Emax [4, 5] of 100%.

For `O=C1CC2CNCCN2c2c(F)cccc2N1` (centres unmarked) [Example 33, 11-fluoro-1,2,3,4,4a,5-hexahydropyrazino[1,2-a][1,5]benzodiazepin-6(7H)-one], the Ki [1] was 0.042 µM, the EC50 [2] was over 10 µM and the EC50 [3] was 0.0142 µM. The Emax [3] was 98%, the EC50 [4] was 0.01 µM and the Emax [4, 5] was over 120%.

`O=C1CC2CNCCN2c2ccc(F)cc2N1` (centres unmarked) [Example 34, 9-fluoro-1,2,3,4,4a,5-hexahydropyrazino[1,2-a][1,5]-benzodiazepin-6(7H)-one] was tested, and the Ki [1] was 0.19 µM, the EC50 [3] was 0.0893 µM and the Emax [3] was 100%.

For `O=C1CC2CNCCN2c2cc(F)ccc2N1` (centres unmarked) [Example 35, 10-fluoro-1,2,3,4,4a,5-hexahydropyrazino[1,2-a][1,5]benzodiazepin-6(7H)-one], the Ki [1] was 0.11 µM, the EC50 [2] was 0.6 µM and the Emax [2] was 80%. The EC50 [3] was 0.052 µM, the Emax [3] was 100% and the EC50 [4] was 0.02 µM. For the same compound, the Emax [4, 5] was over 120%.

In the case of `Cc1ccc2c(c1)N1CCNC[C@@H]1CC(=O)N2` [Example 36, (4aS)-10-methyl-1,2,3,4,4a,5-hexahydropyrazino[1,2-a][1,5]benzodiazepin-6(7H)-one], the Ki [1] is reported as 0.0091 µM, the EC50 [2] is reported as 0.008 µM and the Emax [2] is reported as 100%. It also gave an EC50 [3] of 0.0015 µM, an Emax [3] of 104% and an EC50 [4] of 0.002 µM. For the same compound, the Emax [4, 5] was over 120%.

`O=C1C[C@H]2CNCCN2c2cc(Cl)c(Cl)cc2N1` [Example 37, (4aS)-9,10-dichloro-1,2,3,4,4a,5-hexahydropyrazino[1,2-a][1,5]benzodiazepin-6(7H)-one] gave a Ki [1] of 0.014 µM, an EC50 [2] of 0.003 µM and an Emax [2] of 100%. It also gave an EC50 [3] of 0.0032 µM, an Emax [3] of 99.5% and an EC50 [4] of 0.0008 µM. The Emax [4, 5] was 100%.

Work on `CN1CCN2c3ccccc3NC(=O)CC2C1` (centres unmarked) [Example 38, 3-methyl-1,2,3,4,4a,5-hexahydropyrazino[1,2-a][1,5]benzodiazepin-6(7H)-one] yielded a Ki [1] of 0.2 µM, an EC50 [2] of over 10 µM and an EC50 [3] of 0.0663 µM. For the same compound, the Emax [3] was 68%, the EC50 [4] was 0.08 µM and the Emax [4, 5] was 100%.

In the case of `O=C1CC2CNCCN2c2ccc3ccccc3c2N1` (centres unmarked) [Example 39, 3,3a,4,5,6,7-hexahydronaphtho[1,2-b]pyrazino[1,2-d][1,4]diazepin-2(1H)-one], the Ki [1] is reported as 0.034 µM and the EC50 [3] is reported as over 10 µM.

Compound `Cc1cccc2c1NC(=O)CC1CNCCN21` (centres unmarked) [Example 40, 8-methyl-1,2,3,4,4a,5-hexahydropyrazino[1,2-a][1,5]benzodiazepin-6(7H)-one] has a Ki [1] of 0.035 µM, an EC50 [2] of over 10 µM and an EC50 [3] of 0.0068 µM. For the same compound, the Emax [3] was 89.5%, the EC50 [4] was 0.005 µM and the Emax [4, 5] was 110%.

`O=C1C[C@H]2CNCCN2c2cc(Cl)ccc2N1` [Example 41, (4aS)-10-chloro-1,2,3,4,4a,5-hexahydropyrazino[1,2-a][1,5]benzodiazepin-6(7H)-one] gave a Ki [1] of 0.005 µM, an EC50 [2] of 0.006 µM and an Emax [2] of 110%. For the same compound, the EC50 [3] was 0.002 µM, the Emax [3] was 99.5% and the EC50 [4] was 0.0008 µM. The Emax [4, 5] was over 120%.

`COc1ccc2c(c1)N1CCNC[C@@H]1CC(=O)N2` [Example 43, (4aS)-10-methoxy-1,2,3,4,4a,5-hexahydropyrazino[1,2-a][1,5]benzodiazepin-6(7H)-one] was tested, and the Ki [1] was 0.066 µM, the EC50 [2] was 0.06 µM and the Emax [2] was 80%. It also gave an EC50 [3] of 0.0138 µM, an Emax [3] of 86% and an EC50 [4] of 0.01 µM. The Emax [4, 5] was over 120%.

`CCOc1ccc2c(c1)N1CCNCC1CC(=O)N2` (centres unmarked) [Example 44, 10-ethoxy-1,2,3,4,4a,5-hexahydropyrazino[1,2-a][1,5]benzodiazepin-6(7H)-one] showed a Ki [1] of 0.15 µM, an EC50 ([2]; CHO-K1 cells over-expressing 5HT2B, calcium flux, read-out: EC50 (μM), 5-HT2B Agonist Activity) of over 10 µM and an EC50 [3] of 0.0445 µM. The Emax [3] was 90%, the EC50 ([4]; CHO-K1 cells over-expressing 5HT2C, calcium flux, read-out: EC50 (μM), 5-HT2c Agonist Activity) was 0.03 µM and the Emax ([4]; CHO-K1 cells, read-out: Emax (%), 5-HT2c Agonist Activity) was over 120%.

Work on `O=C1NCC2CNCCN2c2ccccc21` (centres unmarked) [Example 46, 2,3,4,4a,5,6-hexahydropyrazino[1,2-a][1,4]benzodiazepin-7(1H)-one] yielded a Ki [1] of 0.033 µM, an EC50 [2] of 0.3 µM and an Emax [2] of 80%. It also gave an EC50 [3] of 0.0059 µM, an Emax [3] of 93% and an EC50 [4] of 0.008 µM. It also gave an Emax [4, 5] of over 120%.

— patent US8546377B2 (AbbVie Inc., priority 2009, dated 2013)
